Converted amounts (≈) assume the structure as drawn.
Columns and labels:
HBV = assay: Anti-HBV activity in vitro, HepG2.2.15 cells, extracellular HBV DNA by qPCR; assay type: cell-based; settings: Hepatitis B virus, HepG2.2.15, 120 h, HepG2.2.15 cells; HBV replication inhibited by 50%, extracellular HBV DNA by qPCR; five days after compound treatment; read-out: EC50
From the text: HepG2.2.15 and HepDE19 are stably-transfected cell lines containing the HBV genome. Both cell lines are derived from the hepatoblastoma cell line Hep G2 (American Type Culture Collection, ATCC® HB-8065™) by the published procedures described in references: MA Selles et al. Proc. Natl. Acad. Sci. USA 1987, 84, 1005-1009 and H Guo et al. Journal of Virology 2007, 81, 12472-12484, respectively. Both cell lines were maintained in Dulbecco's modified Eagle's medium (DMEM)-F12 medium supplemented with 10% fetal bovine serum, 100 U/mL penicillin, 100 μg/mL streptomycin, and 0.5 mg/mL of G418.
While HepG2.2.15 cells constitutively support HBV replication and production of virus particles, HepDE19 cells are inducible by tetracycline. Addition of 1 μg/mL tetracycline in culture medium suppresses HBV replication in HepDE19 cells, whereas switching to tetracycline-free medium resumes this process.
HepG2.2.15 cells were seeded into 96-well plates (3×10^4 cells in 100 μL media per well) and incubated overnight at 37° C. The test compounds were serially half-log diluted in DMSO, then diluted 100 times in culture media. 100 μL of diluted compounds were added into the plates to reach 0.5% final concentration of DMSO in every well. Five days after compound treatment, culture supernatant was collected for further analysis.
For quantitative PCR detection of extracellular HBV DNA, 100 μL of culture supernatant was collected and processed in MagNA Pure 96 Nucleic Acid Purification System (Roche Applied Science) for viral DNA extraction. The extracted samples were subjected to HBV DNA quantification by qPCR.

Lysa solubility = assay type: physicochemical; settings: 0.05 M phosphate buffer (pH 6.5); for solubility thermodynamic: phosphate buffer, pH 6.5, aqueous buffer, thermodynamic from solid
Description: Samples were prepared in duplicate from 10 mM DMSO stock solutions. After evaporation of DMSO with a centrifugal vacuum evaporator, the residue was solved in 0.05 M phosphate buffer (pH 6.5), stirred for one hour and shook for two hours. After one night, the solution was filtered using a microtiter filter plate. Then the filtrate and its 1/10 dilution were analyzed by direct UV measurement or by HPLC-UV. […] The results were in μg/mL. In case the percentage of sample measured in solution after evaporation divided by the calculated maximum of sample amount was over 80%, the solubility was reported as higher than this value.

[1] = Human microsomal metabolic stability; assay type: in vitro ADME; settings: human microsomes 0.5 mg/mL, 1 μM test compound, NADPH, 37° C., pH 7.4, 0-30 minutes
Description: Human Microsomes (BD Gentest) were preincubated with test compound for 10 minutes at 37° C. in 100 mM phosphate buffer, pH 7.4. The reactions were initiated by adding NADPH or NADPH regenerating system to give a final incubation volume of 400 μL. For NADPH system, the final incubations contained 1 μM test compound, 0.5 mg/mL liver microsomal protein, 1 mM NADPH in 100 mM phosphate buffer, pH 7.4. For the NADPH regenerating system, the final incubations contained 1 μM test compound, 0.5 mg/mL liver microsomal protein, 3 mM glucose 6-phosphate, 1 mM NADP, 3 mM MgCl2 and 0.05 mg/mL glucose 6-phosphate dehydrogenase in 100 mM phosphate buffer, pH 7.4. After incubation times of 0, 3, 6, 9, 15 and 30 minutes at 37° C., 1 sample was obtained from each time point and 50 μL of each sample was removed and transferred to 150 μL of methanol solution which was maintained at 4° C. and contained 2 μM tolbutamide as internal standard. Following precipitation and centrifugation, the amount of compound remaining in the samples were determined by LC-MS/MS. Controls of no NADPH or no NADPH regenerating system at zero and 30 minutes were also prepared and analyzed.

## CCOC(=O)C1=C(CN2CCN3C(=O)N(C(C)C)C[C@H]3[C@@H]2C(=O)O)NC(c2nccs2)=N[C@H]1c1cccc(F)c1Cl (single isomer, unassigned) [Example 84A]
HBV
  EC50: 45 nM
Lysa solubility
  Lysa: 570 µg/mL

## COC(=O)C1=C(CN2CCN3C(=O)N(C4(CC(=O)O)CC4)C[C@H]3C2)NC(c2nccs2)=N[C@H]1c1ccc(F)cc1Cl [Example 46, 2-[1-[(8aR)-7-[[(4R)-4-(2-chloro-4-fluoro-phenyl)-5-methoxycarbonyl-2-thiazol-2-yl-1,4-dihydropyrimidin-6-yl]methyl]-3-oxo-5,6,8,8a-tetrahydro-1H-imidazo[1,5-a]pyrazin-2-yl]cyclopropyl]acetic acid]
HBV
  EC50: 26 nM
Lysa solubility
  solubility thermodynamic: > 744 µg/mL

## CCOC(=O)C1=C(CN2CCN3C(=O)N([C@@H]4CCCC4C(=O)O)C[C@@H]3C2)NC(c2nccs2)=N[C@H]1c1cccc(F)c1Cl (stereo in doubt) [Example 49, (1S,2R)-2-[(8aS)-7-[[(4R)-4-(2-chloro-3-fluoro-phenyl)-5-ethoxycarbonyl-2-thiazol-2-yl-1,4-dihydropyrimidin-6-yl]methyl]-3-oxo-5,6,8,8a-tetrahydro-1H-imidazo[1,5-a]pyrazin-2-yl]cyclopentanecarboxylic acid]
HBV
  EC50: 8 nM
Lysa solubility
  solubility thermodynamic: 312 µg/mL (≈ 494 µM)

## CCC(CN1C[C@@H]2CN(CC3=C(C(=O)OC)[C@H](c4ccc(F)cc4Cl)N=C(c4nccs4)N3)CCN2C1=O)C(=O)O (stereo partly drawn) [Example 75, 2-[[(8aS)-7-[[(4R)-4-(2-chloro-4-fluoro-phenyl)-5-methoxycarbonyl-2-thiazol-2-yl-1,4-dihydropyrimidin-6-yl]methyl]-3-oxo-5,6,8,8a-tetrahydro-1H-imidazo[1,5-a]pyrazin-2-yl]methyl]butanoic acid]
HBV
  EC50: 24 nM
Lysa solubility
  solubility thermodynamic: > 774 µg/mL

## COC(=O)C1=C(CN2CCN3C(=O)N(c4cccc(C(=O)O)c4)C[C@@H]3C2)NC(c2nccs2)=N[C@H]1c1ccc(F)cc1Cl [Example 29, (R)-6-[(S)-2-(3-Carboxy-phenyl)-3-oxo-hexahydro-imidazo[1,5-a]pyrazin-7-ylmethyl]-4-(2-chloro-4-fluoro-phenyl)-2-thiazol-2-yl-1,4-dihydro-pyrimidine-5-carboxylic acid methyl ester]
HBV
  EC50: 7 nM
[1]
  Human Microsomal Clearance: 0.3 mL/min/kg

## COC(=O)C1=C(CN2CCN3C(=O)N(C4CC4)C[C@H]3[C@@H]2C(=O)O)NC(c2nccs2)=N[C@H]1c1ccc(F)c(F)c1C (single isomer, unassigned) [Example 83A]
Lysa solubility
  Lysa: > 740 µg/mL

## COC(=O)C1=C(CN2CCN3C(=O)NC(=O)[C@@H]3C2)NC(c2nccs2)=N[C@H]1c1ccc(F)cc1Cl [Example 16, Methyl (4R)-6-[[(8aS)-1,3-dioxo-5,6,8,8a-tetrahydroimidazo[1,5-a]pyrazin-7-yl]methyl]-4-(2-chloro-4-fluoro-phenyl)-2-thiazol-2-yl-1,4-dihydropyrimidine-5-carboxylate]
HBV
  EC50: 41 nM

## COC(=O)C1=C(CN2CCN3C(=O)N(CCCC(C)(C)CO)CC3C2)NC(c2nccs2)=N[C@H]1c1ccc(F)cc1Cl (stereo partly drawn) [Example 69, Methyl (4R)-4-(2-chloro-4-fluoro-phenyl)-6-[[2-(5-hydroxy-4,4-dimethyl-pentyl)-3-oxo-5,6,8,8a-tetrahydro-1H-imidazo[1,5-a]pyrazin-7-yl]methyl]-2-thiazol-2-yl-1,4-dihydropyrimidine-5-carboxylate]
HBV
  EC50: 13 nM

## COC(=O)C1=C(CN2CCN3[C@H](CNS3(=O)=O)C2)NC(c2nccs2)=N[C@H]1c1ccc(F)cc1Cl [Example 17, Methyl (4R)-6-[[(3aS)-1,1-dioxo-2,3,3a,4,6,7-hexahydro-[1,2,5]thiadiazolo[2,3-a]pyrazin-5-yl]methyl]-4-(2-chloro-4-fluoro-phenyl)-2-thiazol-2-yl-1,4-dihydropyrimidine-5-carboxylate]
HBV
  EC50: 39 nM

## COC(=O)C1=C(CN2CCN3C(=O)NC[C@H]3C2)NC(c2nccs2)=N[C@H]1c1ccc(F)cc1Cl [Example 12, Methyl (4R)-6-[[(8aS)-3-oxo-1,2,5,6,8,8a-hexahydroimidazo[1,5-a]pyrazin-7-yl]methyl]-4-(2-chloro-4-fluoro-phenyl)-2-thiazol-2-yl-1,4-dihydropyrimidine-5-carboxylate]
HBV
  EC50: 149 nM

## COC(=O)C1=C(CN2CCN3C(=O)N(c4ccc(C(=O)O)nc4)CC3C2)NC(c2nccs2)=N[C@H]1c1ccc(F)cc1Cl (mixture of isomers) [Example 95, 5-[7-[[(4R)-4-(2-chloro-4-fluoro-phenyl)-5-methoxycarbonyl-2-thiazol-2-yl-1,4-dihydropyrimidin-6-yl]methyl]-3-oxo-5,6,8,8a-tetrahydro-1H-imidazo[1,5-a]pyrazin-2-yl]pyridine-2-carboxylic acid]
HBV
  EC50: 11 nM
Lysa solubility
  solubility thermodynamic: 307 µg/mL (≈ 490 µM)

## COC(=O)C1=C(CN2CCN3C(=O)NC(=O)[C@H]3C2)NC(c2nccs2)=N[C@H]1c1ccc(F)cc1Cl [Example 15, Methyl (4R)-6-[[(8aR)-1,3-dioxo-5,6,8,8a-tetrahydroimidazo[1,5-a]pyrazin-7-yl]methyl]-4-(2-chloro-4-fluoro-phenyl)-2-thiazol-2-yl-1,4-dihydropyrimidine-5-carboxylate]
HBV
  EC50: 110 nM

## CCOC(=O)C1=C(CN2CCN3C(=O)N(C(C)(C)C(=O)OC)CC3C2)NC(c2nccs2)=N[C@H]1c1cccc(F)c1Cl (stereo partly drawn) [Example 23, Ethyl (4R)-4-(2-chloro-3-fluoro-phenyl)-6-[[2-(2-methoxy-1,1-dimethyl-2-oxo-ethyl)-3-oxo-5,6,8,8a-tetrahydro-1H-imidazo[1,5-a]pyrazin-7-yl]methyl]-2-thiazol-2-yl-1,4-dihydropyrimidine-5-carboxylate]
HBV
  EC50: 3 nM

## CCOC(=O)C1=C(CN2CCN3C(=O)NC[C@H]3C2)NC(c2nccs2)=N[C@H]1c1ccc(F)cc1Br [Example 13, Ethyl (4R)-6-[[(8aS)-3-oxo-1,2,5,6,8,8a-hexahydroimidazo[1,5-a]pyrazin-7-yl]methyl]-4-(2-bromo-4-fluoro-phenyl)-2-thiazol-2-yl-1,4-dihydropyrimidine-5-carboxylate]
HBV
  EC50: 66 nM

## COC(=O)C1=C(CN2CCN3C(=O)N(C4(CC(=O)O)CC4)CC3C2)NC(c2nccs2)=N[C@H]1c1ccc(F)cc1Cl (stereo in doubt) [Example 47, 2-[1-[(8aR)-7-[[(4R)-4-(2-chloro-4-fluoro-phenyl)-5-methoxycarbonyl-2-thiazol-2-yl-1,4-dihydropyrimidin-6-yl]methyl]-3-oxo-5,6,8,8a-tetrahydro-1H-imidazo[1,5-a]pyrazin-2-yl]cyclopropyl]acetic acid]
HBV
  EC50: 51 nM
Lysa solubility
  solubility thermodynamic: > 767 µg/mL

## CCOC(=O)C1=C(CN2CCN3C(=O)N(CCC(=O)O)C[C@@H]3C2)NC(c2nccs2)=N[C@H]1c1cccc(F)c1Cl [Example 56, (R)-6-[(S)-2-(2-Carboxy-ethyl)-3-oxo-hexahydro-imidazo[1,5-a]pyrazin-7-ylmethyl]-4-(2-chloro-3-fluoro-phenyl)-2-thiazol-2-yl-1,4-dihydro-pyrimidine-5-carboxylic acid ethyl ester]
HBV
  EC50: 26 nM
Lysa solubility
  solubility thermodynamic: > 740 µg/mL

## COC(=O)C1=C(CN2CCN3C(=O)COCC3C2)NC(c2nccs2)=N[C@H]1c1ccc(F)cc1Cl (stereo partly drawn) [Example 2, Methyl (4R)-4-(2-chloro-4-fluoro-phenyl)-6-[(4-oxo-6,7,9,9a-tetrahydro-1H-pyrazino[2,1-c][1,4]oxazin-8-yl)methyl]-2-thiazol-2-yl-1,4-dihydropyrimidine-5-carboxylate]
HBV
  EC50: 54 nM
